Source: patent US7538185B2, “Glucagon-like peptide-1 analogs with long duration of action” (Theratechnologies Inc., priority 2004, dated 2009)

Legend:
[1] = test system: streptozotocin-induced diabetic CD-1 mice; test: Glucose lowering in fed streptozotocin-induced diabetic CD-1 mice (Example 8, FIGS. 12-16); assay type: in vivo; settings: for glucose levels of streptozotocin-induced diabetic mice / duration of action: fed STZ-induced diabetic CD-1 mice, sc; for duration of action: FIGS. 12-16
Experimental: Blood glucose levels were measured for 12 hours post-injection (mean ±SEM; upper panel). […] In order to compare the duration of the effects of TH0396 and Exendin-4™, the glucose levels at the last hour of observation were analyzed in a dose-dependent manner. […] At 10:00 am, the animals were injected subcutaneously with the agent. Blood glucose levels were measured for 12 hours post-injection (mean ±SEM; upper panel). Average glucose levels at 11 and 12 hours are presented after subtracting the fed glucose levels of normal mice (n is the number of animals as presented on top of the lower panel bars). The animals (CD-1 mice) were maintained on standard laboratory chow under a 12:12 light:dark cycle. The animals were kept in groups of 4 mice per cage. […] The amount of food eaten was monitored for the duration of the experiment. […] A small piece of the tip of the tail of the CD-1 mice was cut with a scalpel and a drop of blood drawn by applying light pressure with the thumb and index from the base of the tail to the tip. The drop of blood was placed on a glucometer strip (Accucheck™ compact, Roche) and a reading obtained. The scab was removed and the same procedure applied for each subsequent measurement.

[2] = test system: cAMP production in RINm5F cells; test: cAMP production in RINm5F cells (Example 5); assay type: cell-based; settings: 30 minutes at 37° C., 0.1 mM IBMX, mean ± SEM
Experimental: RINm5F cells (ATCC # CRL-2058) were grown according to the manufacturer's specifications. Cells from approximately 90% confluent flasks were trypsinized and counted. […] Samples of the stock solutions were then aliquoted in 100 μl volumes (100 μg), to which were then added 400 μl H2O. The aliquots were then frozen and lyophilized overnight. The lyophilized samples were kept at −80° C. until used. The samples were prepared just prior to running the experiments, at a concentration of 1 mM (accounting for peptide purity and peptide content when available). From 2× stock solutions, dose-responses (10^−10 M to 10^−5 M) were measured in RPMI containing 0.1 mM IBMX. […] Cell culture media was gently aspired from the wells. The cells were then pre-incubated in 100 μl RPMI 0.1 mM IBMX at 37° C. for 10 minutes. […] At the end of the incubation period, the supernatant was collected and assayed for cAMP concentration, using a radioimmunoassay kit (DPC). Radioactive counts were transformed into cAMP amounts using a standard curve. The obtained cAMP values were corrected for the total protein in the corresponding wells as determined using the Coomassie blue assay. The cAMP values are expressed as mean ±SEM in pmol/mg protein (Table 3). Dose responses of cAMP were fitted to a sigmoidal curve model (fixed slope) using GraphPad Prism 3.02™. When performing a protein assay, the amount of protein per well is assayed for each sample. The cells were lysed with NaOH (0.1 N) and a 10 μl aliquot was used to assay the protein levels. This is done using Coomassie Blue (Pierce) and an automated plate reader Emax Pro™ (Molecular Devices).

[3] = test system: CD-1 mice; test: Post-prandial glucose lowering in fed CD-1 mice (Example 6, FIG. 4); assay type: in vivo; settings: 400 μg/kg sc, AUC glucose over 6 hours
Experimental: Post-prandial AUC glucose levels for a 6 hour period are presented as a bar (mean ±SEM; n=the number of animals as presented above the bar). […] FIGS. 5, 6, 7 and 8 illustrate the effect (dose response) on post-prandial glucose levels in CD-1 mice for selected analogs. […] The blood glucose levels were measured for a period of up to 6 hours following injection (mean ±SEM; upper panel). The AUC glucose for the 6 hours period is presented as a bar (mean ±SEM; lower panel; n is the number of animals as presented on top of the lower panel bars); The animals (CD-1 mice) were maintained on standard laboratory chow under a 12:12 light:dark cycle. The animals were kept in groups of 4 mice per cage. […] The amount of food eaten was monitored. The food was then removed and the animals were injected subcutaneously with either vehicle or with a GLP-1 analogue to be tested. […] A small piece of the tip of the tail of the CD-1 mice was cut with a scalpel and a drop of blood drawn by applying light pressure with the thumb and index from the base of the tail to the tip. The drop of blood was placed on a glucometer strip (Accucheck™ compact, Roche) and a reading obtained. The scab was removed and the same procedure applied for each subsequent measurement.

[4] = test system: CD-1 mice; test: Post-prandial blood glucose levels in CD-1 mice (Example 2, FIG. 1); assay type: in vivo; settings: CD-1 mice fasted overnight, fed 30 minutes, peptides 400 μg/kg sc, blood glucose followed 6 hours
Experimental: Various peptides, including peptides of the present invention (400 μg/kg), were administered sc at 30 minutes and the blood glucose levels were determined for the next 6 hours. The data are presented as mean ±SEM values;
Overnight fasted CD-1 normal female mice (6 wk. Charles River, Montreal, Canada), were fed ad libidum for 30 minutes. […] Blood samples were drawn by tail vein excision and blood glucose levels (mmol/L) were determined for the next 6 hours using a One-Touch™ glucometer.

[5] = target: T1, GLP-1 receptor in RINm5F cells (Rattus norvegicus, UniProt P32301); test: Displacement of 125I-GLP-1(7-36)NH2 using RINm5F cells (Example 4, FIG. 3); assay type: binding; settings: RINm5F cell membranes, 400 μg protein, 22° C., 45 minutes
T1 construct: The cell membranes were diluted to obtain aliquots of 400 μg of protein per assay tube; host or cells: RINm5F cells, sonicated to a membrane preparation
T1 sequence (P32301 22-463): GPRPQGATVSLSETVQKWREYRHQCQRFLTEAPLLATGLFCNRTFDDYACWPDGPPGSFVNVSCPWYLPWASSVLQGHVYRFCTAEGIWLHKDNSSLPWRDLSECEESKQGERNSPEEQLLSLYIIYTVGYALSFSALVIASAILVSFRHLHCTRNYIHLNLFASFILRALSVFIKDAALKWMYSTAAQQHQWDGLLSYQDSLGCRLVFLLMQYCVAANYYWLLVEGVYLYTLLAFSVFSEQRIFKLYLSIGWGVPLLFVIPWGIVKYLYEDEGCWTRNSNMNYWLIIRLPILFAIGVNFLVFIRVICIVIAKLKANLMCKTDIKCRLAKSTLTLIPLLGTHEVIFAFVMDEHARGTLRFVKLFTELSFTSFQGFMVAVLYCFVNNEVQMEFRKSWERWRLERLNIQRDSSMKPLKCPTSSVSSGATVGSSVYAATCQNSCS
Experimental: The IC50 is calculated as the half-maximal inhibition of binding of the radiolabeled peptide; RINm5F cells (ATCC # CRL-2058) were grown according to the manufacturer's specifications. Cells from confluent flasks were maintained for four (4) days prior to the experiment. The cells were then scrapped and collected in 15 ml conical tubes followed by sonication and evaluation of protein levels. The cell membranes were diluted to obtain aliquots of 400 μg of protein per assay tube. Aliquots of RINm5F cells containing 400 μg of protein were incubated at 22° C. […] The reactions were stopped using 100 mM Tris-HCl (3×3 mL, pH 7.4) and the solutions passed through a GF/C Whatman glass microfiber filter. The latter was subsequently placed into glass tubes and counted on a Packard COBRA II Gamma counter™. Displacement isotherms were traced and analyzed using Prism™ (GraphPad, Ca).

[6] = Nauck 1996; Todd 1998; cited from earlier work
[7] = active GLP-1; Holst 1994; cited from earlier work
[8] = test system: Sprague-Dawley rats; test: Blood glucose levels in Sprague-Dawley rats under hyperglycemic clamping (Example 3, FIG. 2); assay type: in vivo; settings: hyperglycemic clamping at 15 mM, sc
Experimental: Various peptides, including peptides of the present invention (100 μg/kg) were administered sc. Alterations in blood glucose levels (Delta glucose: mM) are shown on the abscissa. The data are presented as mean ±SEM values;
The animals (Sprague-Dawley rats) were maintained on standard laboratory chow under a 12:12 light:dark cycle. Following a 12 hour fasting period, the animals were anesthetized (Isoflurane 2%) and a carotid and jugular catheter installed to allow blood withdrawal and glucose injections (1.0 g/kg bolus followed by an infusion of 1.4 g/kg/hr) respectively. The animals received a subcutaneous injection of the analogs at different concentrations (300 μg/kg) 90 minutes after initiating the glucose bolus and infusion, at a time period where blood glucose concentrations have reached a steady level. Blood glucose measurements were taken prior to and 30, 60, 90, 100, 110, 120, 135, 150, 180, 210, and sometimes 240 and 300 minutes after the injection of glucose.
Glucose measurements were carried out immediately following sampling (0.3-0.4 ml; if needed) by placing a blood droplet on a glucometer strip. The glucose measurements were carried out prior to plasma separation (centrifugation) required to perform the insulin and/or any other assay.

| Substance | glucose levels of streptozotocin-induced diabetic mice [1] | duration of action [1] | EC50 [2] [nM] | Maximal response [2] [pmol/mg protein] | reduction of post-prandial glucose [3] | other results |
| --- | --- | --- | --- | --- | --- | --- |
| trans-3-hexenoyl-NH-His-Ala-Glu-Gly-Thr-Phe-Thr-Ser-Asp-Val-Ser-Ser-Tyr-[(S)-Octylglycine]-Glu-Gly-Gln-Ala-Ala-Lys-Ala-Phe-Ile-Glu-Trp-Leu-Lys-Asn-NH2 [TH0395] | down to those seen in normal feeding mice | extended duration of action | 6.1 ± 0.9 | 3.7 ± 0.4 | potently reduce post-prandial glucose | potency compared with Exendin-4 ([1]; STZ-induced diabetic mice, initial 6 hours of the study, FIG. 14): more potent then Exendin-4™ |
| 2-Hydroxybenzoyl-NH-His-Ala-Glu-Gly-Thr-Phe-Thr-Ser-Asp-Val-Ser-Ser-Tyr-Leu-Glu-Gly-Gln-Ala-Ala-Lys-Glu-Phe-Ile-Ala-Trp-Leu-Val-Lys-Gly-Arg-NH2 [TH0318] |  |  | 13.6 ± 2.9 | 3.5 ± 0.2 |  | duration of hypoglycemic action [4]: 2 h |
| His-Ala-Glu-Gly-Thr-Phe-Thr-Ser-Asp-Val-Ser-Ser-Tyr-[(S)-Octylglycine]-Glu-Gly-Gln-Ala-Ala-Lys-Glu-Phe-Ile-Ala-Trp-Leu-Val-Lys-Gly-Arg-NH2 [TH0322] |  |  | 0.2 ± 0.2 | 1.0 ± 0.2 |  | potency in displacing receptor bound ligand (125I-GLP-1(7-36)NH2) [5]: considerably more potent than GLP-1 |
| His-Gly-Glu-Gly-Thr-Phe-Thr-Ser-Asp-Val-Ser-Ser-Tyr-[(S)-Octylglycine]-Glu-Gly-Gln-Ala-Ala-Lys-Ala-Phe-Ile-Glu-Trp-Leu-Lys-Asn-NH2 [TH0397] |  |  |  |  | potently reduce post-prandial glucose |  |
| HAEGTFTSDVSSYLEGQAAKEFIAWLVKGR [GLP-1, reference compound] |  |  | 1.8 ± 0.9 | 1.5 ± 0.3 |  | duration of hypoglycemic action [6]: 2 to 3 h; duration of hypoglycemic action [4]: 2 h; metabolic clearance rate [7]: 12 to 13 min |
| trans-3-hexenoyl-NH-His-Ala-Glu-Gly-Thr-Phe-Thr-Ser-Asp-Val-Ser-Ser-Tyr-[(S)-Octylglycine]-Glu-Gly-Gln-Ala-Ala-Lys-Ala-Phe-Ile-Glu-Trp-Leu-Val-Lys-Asn-NH2 [TH0396] | down to those seen in normal feeding mice | extended duration of action | 2.3 ± 1.7 | 3.9 ± 0.3 | potently reduce post-prandial glucose |  |
| His-Gly-Glu-Gly-Thr-Phe-Thr-Ser-Asp-Val-Ser-Ser-Tyr-Leu-Glu-Gly-Gln-Ala-Ala-Lys-Ala-Phe-lle-Glu-Trp-Leu-Lys-Asn-NH2 [TH0384] |  |  |  |  |  | potency on blood glucose levels (delta glucose) [8]: more potent than GLP-1 or the 2-hydroxybenzoyl-GLP-1 analog TH0318; potency in displacing receptor bound ligand (125I-GLP-1(7-36)NH2) [5]: considerably more potent than GLP-1 |
| trans-3-hexenoyl-NH-His-Ala-Glu-Gly-Thr-Phe-Thr-Ser-Asp-Val-Ser-Ser-Tyr-[(S)-Octylglycine]-Glu-Gly-Gln-Ala-Ala-Lys-Glu-Phe-Ile-Ala-Trp-Leu-Val-Lys-Aib-Arg-NH2 [TH0426] |  |  | 0.4 ± 0.4 | 5.7 ± 0.6 |  |  |
| trans-3-hexenoyl-NH-His-Ala-Glu-Gly-Thr-Phe-Thr-Ser-Asp-Val-Ser-Ser-Tyr-[(S)-Octylglycine]-Glu-Gly-Gln-Ala-Ala-Lys-Glu-Phe-Ile-Ala-Trp-Leu-Val-Lys-Gly-Arg-NH2 [TH0424] | down to those seen in normal feeding mice | extended duration of action | 6.3 ± 1.7 | 4.3 ± 0.2 | potently reduce post-prandial glucose |  |
